These results are taken from patent publication US7396905B1, “Calcipressins: endogenous inhibitors of calcineurin, uses and reagents related thereto” (priority 1999, dated 2008).

The subject of data set [1] is BHK cells transfected with CnA and CnB. Briefly: Calcium ionophore-induced apoptosis of BHK cells transfected with CnA/CnB. Format: cell-based, baby hamster. Particulars: ionomycin, low serum. As to the method:
FIG. 7: Cells transfected with CnA/CnB (0.5 μg each) were serum deprived for four hours and stimulated with ionomycin (0.25 μM) for one hour in low serum media alone or containing CsA (800 nM), 6 MeAla-CsA (800 nM), and MeBm2t-CsA (800 nM), FK506 (100 nM).
Calcium signaling plays an important and yet mechanistically vague role in a wide range of cell death, including neuronal cell death in stroke and lymphocyte cell death during positive and negative selection. To test the possibility that calcineurin, a calcium-activated phosphatase, participates in cell death, we asked if cells overexpressing calcineurin would show an enhanced sensitivity to calcium ionophore-induced cell death (Shibasaki and McKeon, 1995). We co-transfected calcineurin A and B subunits into baby hamster kidney (BHK) cells and treated them with calcium ionophore approximately 16 hours later.

The subject of the next data set is Csp1 transcripts. Briefly: Csp1 transcript induction (Northern blot) in Jurkat T cells. Format: cell-based. Particulars: human Jurkat T cells, through eight hours. As to the method: 16A. Calcium signaling induces Csp 1 expression in synergy with PKC pathways. Csp 1 Northern blot of Jurkat T cells were treated with either calcium ionophore (I), PMA (P) or both (I+P) for the indicated durations. GAPDH transcripts were used as sample loading control.
16B. Calcium-dependent Csp 1 induction requires calcineurin.

Data set [2] is described as follows: Solubility assay upon expression in E. coli. The format is physicochemical. The source says: Calcineurin consists of two subunits (Klee et al., 1998), CnA (60 kDa) and CnB (18 kDa), neither of which is soluble when expressed individually in E. coli. The structure of calcineurin was studied by taking advantage of the high level of calcineurin in the central nervous system to directly isolate it from bovine brain (Griffith et al., 1995). […] It is likely that the insolublility of Csp expression in E. coli is due to the absence of binding proteins such as calcineurin, thereby leaving hydrophobic stretches of amino acids uncomplemented (FIG. 1). As with the calcineurin subunits, it is possible that Csp 1 and Csp2 interact with calcineurin in a manner that will form a properly folded, soluble complex. […] The E. coli host containing the calcineurin expression vector will be transformed with these Csp vectors and selected for kanamycin resistance.
Alternatively the given protein or complex may be obtained in sufficient quantities and quality and crystallization protocols may be attempted. […] The skilled artisan will appreciate that other protein expression systems, such as baculovirus, may also be used.

In data set [3] the test system is calcineurin-dependent nuclear import of NF-AT4. The experiment in a line: Calcineurin-dependent NF-AT4 nuclear import assay in BHK cells. The settings on record: for inhibition of NF-AT4 nuclear import stimulated by calcium ionophore: co-expressed with GFP-NF-AT4 in BHK cells; for inhibition of NF-AT nuclear import driven by constitutively active calcineurin (ΔCnA): co-expressed with NF-AT and constitutively active ΔCnA in BHK cells. Format: cell-based, baby hamster. Here is the method: This assay monitors the subcellular location of GFP-tagged NF-AT4, a transcription factor that resides in the cytoplasm of unstimulated BHK cells. Following stimulation of BHK cells with ionomycin, a calcium ionophore, GFP-NF-AT4 translocates to the nucleus with a t1/2 of five minutes. This translocation event is accompanied by a dephosphorylation of NF-AT4 in a process dependent on calcineurin.
Baby hamster kidney cells were grown on sterile glass coverslips in DMEM media with 10% fetal calf serum and transfected using calcium phosphate methods (Heald et al., 1993). […] NF-AT4 expression was based on the vector pcDNA3-GFP-NF-AT4 (Shibasaki et al., 1996). Transfected cells were grown for 18 hours prior to drug treatments. Cells were fixed 30 minutes after ionomycin (0.5 uM) treatment or washout using 3% formaldehyde in PBS for 10 minutes at room temperature.

In data set [4] the target is T1, purified bovine brain calcineurin (Bos taurus, UniProt P48452+P63099).
T1 construct: 50 nM purified bovine brain calcineurin; from tissue; host or cells: bovine brain
Briefly: Phosphorylated RII-peptide calcineurin phosphatase assay. The settings on record: PKA-phosphorylated RII peptide as substrate; GsT fusion proteins 0-20 nM, 15 minutes; read-out: 50 percent inhibition concentrations (IC50) for calcineurin. The format is biochemical. As to the method: The RII peptide of the cAMP-regulatory subunit of PKA was produced as a fusion protein with GsT and labeled with ^32P-phosphate using protein kinase A followed by glutathione-Sepharose affinity purification (Milan et al., 1994). The radiolabeled RII GsT fusion protein was incubated with 1.5u of purified bovine brain calcineurin (ProMega) and 200 nM calmodulin (Sigma) in the presence of 0-20 nM GsT-Csp1 or GsT-Csp2 for 15 minutes. The reaction was stopped by the addition of an equal volume of 2xSDS sample buffer. After fractionation by SDS-polyacrylamide gel electrophoresis, free phosphate was measured by PhosphorImager analysis.

Data set [5] has as its system calcineurin-dependent NF-AT dephosphorylation. The experiment in a line: NF-AT4 dephosphorylation (western blot mobility) in BHK cells. The format is cell-based, baby hamster. Particulars: co-expressed with NF-AT4 in BHK cells; calcium ionophore treatment. Here is the method:
3B. […] The transfected cells were either left untreated or treated with 1 μM calcium inonphore for 30 min, and the mobility of NF-AT4 was assessed by western blotting.
(In general: A western blot detects proteins with antibodies after separation by electrophoresis.)

The target in data set [6] is T1, purified bovine brain calcineurin. Briefly: Para-nitrophenyl phosphate (pNPP) hydrolysis assay. Format: biochemical. Particulars: 60 mM pNPP, 50 nM calcineurin, 0-100 nM GsT fusion protein. As to the method:
To determine whether the calcipressins; inhibit calcineurin in a manner similar to the immunosuppressants, we assayed pNPP hydrolysis by calcineurin-calcipressin complexes.
Reactions were performed for 30 min at 30 degrees, and stopped by the addition of 950 uL of 1M NaOH. The reaction product was measured by absorbance at 405 nm in a Beckman Du 64 spectophotometer.

The subject of data set [7] is human calcineurin A subunit. Briefly: Yeast two-hybrid interaction with calcineurin. Format: binding. The source says: Potential targets of calcineurin, which is involved in neuronal calcium signaling, were identified using two hybrid screens of a murine hippocampal cDNA library as the prey and using calcineurin as a bait.
The calcineurin bait vector was constructed by cloning the human calcineurin A subunit (ΔCnAD130N; Zhu and McKeon, 1999) into pBRIDGE (Clontech) to create a fusion protein with the Gal4 DNA binding domain. The calcineurin regulatory B subunit (CnB) was cloned into the same pBridge vector under a separate, constitutive promoter. To test for interactions between calcineurin and proteins expressed in the hippocampus, the yeast strain CG1945, in which HIS3 expression is controlled by the Gal1 upstream activating sequence (UAS), was transfected with both the pBRIDGE vector as well as vector DNA from the murine hippocampal cDNA library. Cells were selected for growth on SD media lacking leucine, tryptophan, methionine, and histidine (-LWMH) containing 25 mM 3-aminotriazole, an inhibitor of alternative histidine biosynthetic pathways (REF). […]

human calcineurin A subunit, sequence (P63098 2-170, further chain): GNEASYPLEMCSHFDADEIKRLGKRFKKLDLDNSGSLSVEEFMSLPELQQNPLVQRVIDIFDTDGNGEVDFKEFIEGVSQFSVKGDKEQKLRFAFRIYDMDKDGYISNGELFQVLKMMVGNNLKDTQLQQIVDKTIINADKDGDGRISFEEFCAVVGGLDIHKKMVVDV

For the compound `C/C=C/CC(C)(C)[C@@H](O)C1C(=O)N[C@@H](CC)C(=O)N(C)CC(=O)N(C)[C@@H](CC(C)C)C(=O)N[C@@H](C(C)C)C(=O)N(C)[C@@H](CC(C)C)C(=O)N[C@@H](C)C(=O)N[C@H](C)C(=O)N(C)[C@@H](CC(C)C)C(=O)N(C)[C@@H](CC(C)C)C(=O)N(C)[C@@H](C(C)C)C(=O)N1C` (some centres unmarked) [MeBm2t-CsA], the “effect on calcineurin-induced apoptosis” value in data set [1] is “augment the apoptotic effect of calcineurin to a greater extent than CsA”.

`CCCCCCCCCCCCCC(=O)O[C@@H]1[C@@H](C)[C@@]2(O)[C@@H](C=C(CO)C[C@]3(O)C(=O)C(C)=C[C@@H]23)[C@@H]2C(C)(C)[C@]12OC(C)=O` [PMA, phorbol 12-myristate 13-acetate]: in the data set on Csp1 transcripts, the “effect on Csp1 transcript level” value was “weak yet detectable stimulation of Csp1 transcription”.

Consider `C[C@H](CCC(=O)O)C[C@H](C)C[C@H](C)C(=O)/C=C(\O)[C@H](C)C[C@H](C)C/C=C/[C@@H](C)[C@@H](O)[C@@H](C)[C@@H](O)C[C@@H]1CC[C@@](C)([C@H]2CC[C@@](C)([C@@H](C)O)O2)O1` [ionomycin], for which the “effect on Csp1 transcript level” value with Csp1 transcripts is on record as “not significantly elevated”.

As to “Csp1 101-197: Csp1 lacking the N-terminus; C-terminal half of Csp1 (amino acids 101-197)”, the “fraction of molecule soluble in E. coli” value in data set [2] (truncated molecule expressed in E. coli) was “approximately 70%”. The “inhibition of NF-AT4 nuclear import stimulated by calcium ionophore” value in data set [3] is recorded as “sufficient to inhibit the nuclear import of NF-AT4”.

Consider “Csp1: Calcipressin 1, murine homolog of DSCR1, endogenous inhibitor of calcineurin; amino acid sequence SEQ ID No: 4”, for which the IC50 in data set [4] came to 2 nM.

In the case of “Csp2: Calcipressin 2, murine homolog of ZAKI-4, endogenous inhibitor of calcineurin; amino acid sequence SEQ ID No: 5”, the “typical yield of total protein in the soluble fraction” value in data set [2] (full length molecule expressed in E. coli at 15, 22, or 30° C.) came out at 3%. Besides, the NF-AT4 phosphorylation state result in data set [5] is “hyperphosphorylated despite calcium ionophore treatment”. Also, in data set [3], the “inhibition of NF-AT4 nuclear import stimulated by calcium ionophore” value is listed as “profound suppression” and the “inhibition of NF-AT nuclear import driven by constitutively active calcineurin (ΔCnA)” value is “strong inhibitors of ΔCnA-induced NF-AT nuclear import”. In data set [4], the IC50 was 5 nM. Further, the “inhibition of pNPP hydrolysis by calcineurin” value in data set [6] is given as “blocked the hydrolysis of pNPP by calcineurin”. Also, the “binding to calcineurin in two-hybrid yeast strains” value in data set [7] was “specifically bind to the catalytic subunit of calcineurin (CnA)”.

As to “Csp3: Third calcipressin family member, cDNA cloned from activated murine T cells; amino acid sequence SEQ ID No: 24”, the “inhibition of NF-AT nuclear import driven by constitutively active calcineurin (ΔCnA)” value in data set [3] is recorded as “inhibits the calcineurin mediated translocation of NFAT”.
